Measurements from patent publication US8563597B2, “Fused tricyclic ether carbamates and their use” (priority 2010, dated 2013).

Experiments:
HIV-1 protease = HIV-1 protease (Human immunodeficiency virus type 1 group M subtype B, UniProt P04585); test: Enzymatic inhibitory activity (Ki) against HIV-1 protease; type: biochemical
HIV-1LAI = test: Antiviral activity against HIV-1LAI; type: cell-based; details: Human immunodeficiency virus 1
[1] = system: HIV-1ERS104pre (wild-type: X4); test: Antiviral activity against clinical isolates in PHA-PBMs (p24 Gag production); type: cell-based
Source text: (§1) Relative Antiviral activity of 33, and 34 against multi-drug resistant clinical isolates in PHA-PBMs

HIV-1MDR/TM (X4) = test: Antiviral activity against multi-drug resistant clinical isolates in PHA-PBMs (p24 Gag production); type: cell-based
Source text: as §1

HIV-1MDR/G (X4) = test: as above; type: cell-based
Source text: as §1

HIV-1MDR/MM (R5) = test: as above; type: cell-based
Source text: as §1

HIV-1MDR/JSL (R5) = test: as above; type: cell-based
Source text: as §1

HIV-1MDR/C (X4) = test: as above; type: cell-based
Source text: as §1

HIV-1MDR/B (X4) = test: as above; type: cell-based
Source text: as §1

[2] = system: highly PI-resistant clinical HIV-1 variants; details: in vitro; result in words
Procedure: In another embodiment, novel oxatricyclic [3(R), 3aS, 4aS, 7aR, 8aS] and [3(R), 3aS, 4aR, 7aS, 8aS]-ligands were designed, synthesized, and incorporated into the (R)-hydroxyethyl sulfonamide isostere. […] The antiviral activity of 33 against a panel of highly PI-resistant clinical HIV-1 variants in vitro was measured.

Structure (SMILES): COc1ccc(S(=O)(=O)N(CC(C)C)C[C@@H](O)[C@H](Cc2ccccc2)NC(=O)OC2CCCC3OC4OCCCC4C23)cc1 (stereo partly shown)
- Ki (HIV-1 protease): < 1 nM

Structure (SMILES): COc1ccc(S(=O)(=O)N(CC(C)C)C[C@@H](O)[C@H](Cc2ccccc2)NC(=O)O[C@H]2CCCC3O[C@H]4OCC[C@H]4C32)cc1 (stereo partly shown)
- IC50 (HIV-1LAI): < 10 nM
- Ki (HIV-1 protease): < 0.1 nM

Structure (SMILES): COc1ccc(S(=O)(=O)N(CC(C)C)C[C@@H](O)[C@H](Cc2ccccc2)NC(=O)O[C@@H]2C[C@@H]3OC4OCCCC4[C@@H]3C2)cc1 (stereo partly shown)
- Ki (HIV-1 protease): < 0.1 nM

Structure (SMILES): CC(C)CN(C[C@@H](O)[C@H](Cc1ccccc1)NC(=O)O[C@H]1CO[C@H]2O[C@@H]3OCC[C@@H]3[C@H]21)S(=O)(=O)c1ccc(N)cc1
- Ki (HIV-1 protease): < 0.1 nM

Structure (SMILES): COc1ccc(S(=O)(=O)N(CC(C)C)C[C@@H](O)[C@H](Cc2ccccc2)NC(=O)OC2CS(=O)(=O)CC3OC4OCCC4C23)cc1 (stereo partly shown)
- Ki (HIV-1 protease): < 1 nM

Structure (SMILES): COc1ccc(S(=O)(=O)N(CC(C)C)C[C@@H](O)[C@H](Cc2ccccc2)NC(=O)OC2CS(=O)(=O)CC3OC4OCCCC4C23)cc1 (stereo partly shown)
- Ki (HIV-1 protease): > 10 nM

Structure (SMILES): CC(C)CN(C[C@@H](O)[C@H](Cc1ccccc1)NC(=O)O[C@@H]1C[C@@H]2[C@H]3COC[C@H]3O[C@@H]2C1)S(=O)(=O)c1ccc(N)cc1
- Ki (HIV-1 protease): < 0.1 nM

Structure (SMILES): CC(C)CN(C[C@@H](O)[C@H](Cc1ccccc1)NC(=O)O[C@H]1CO[C@H]2O[C@@H]3COC[C@@H]3[C@H]21)S(=O)(=O)c1ccc(N)cc1
- Ki (HIV-1 protease): < 0.1 nM

Structure (SMILES): COc1ccc(S(=O)(=O)N(CC(C)C)C[C@@H](O)[C@H](Cc2ccccc2)NC(=O)O[C@H]2CO[C@H]3O[C@@H]4CCO[C@@H]4[C@H]32)cc1
- Ki (HIV-1 protease): < 0.1 nM

Structure (SMILES): COc1ccc(S(=O)(=O)N(CC(C)C)C[C@@H](O)[C@H](Cc2ccccc2)NC(=O)O[C@H]2CO[C@H]3O[C@@H]4COC[C@@H]4[C@H]32)cc1
- Ki (HIV-1 protease): < 0.1 nM

Structure (SMILES): CC(C)CN(C[C@@H](O)[C@H](Cc1ccccc1)NC(=O)O[C@@H]1C[C@@H]2[C@H]3OCC[C@H]3O[C@@H]2C1)S(=O)(=O)c1ccc(N)cc1
- Ki (HIV-1 protease): > 10 nM

Structure (SMILES): CC(C)CN(C[C@@H](O)[C@H](Cc1ccccc1)NC(=O)O[C@H]1CO[C@H]2O[C@@H]3CCO[C@@H]3[C@H]21)S(=O)(=O)c1ccc(N)cc1
- Ki (HIV-1 protease): < 0.1 nM

Structure (SMILES): CC(C)CN(C[C@@H](O)[C@H](Cc1ccccc1)NC(=O)O[C@H]1CCOC1)S(=O)(=O)c1ccc(N)cc1 [APV, Amprenavir, reference compound]
- fold changes of IC50 values compared to wild-type HIV-1ERS104pre [1]: 1 fold
- fold changes of IC50 values compared to wild-type HIV-1ERS104pre (HIV-1MDR/TM (X4)): 15 fold
- fold changes of IC50 values compared to wild-type HIV-1ERS104pre (HIV-1MDR/G (X4)): 15 fold
- fold changes of IC50 values compared to wild-type HIV-1ERS104pre (HIV-1MDR/MM (R5)): 9 fold
- fold changes of IC50 values compared to wild-type HIV-1ERS104pre (HIV-1MDR/JSL (R5)): 13 fold
- fold changes of IC50 values compared to wild-type HIV-1ERS104pre (HIV-1MDR/C (X4)): 11 fold
- fold changes of IC50 values compared to wild-type HIV-1ERS104pre (HIV-1MDR/B (X4)): 16 fold

Structure (SMILES): CC(C)CN(C[C@@H](O)[C@H](Cc1ccccc1)NC(=O)O[C@H]1CO[C@H]2OCC[C@H]21)S(=O)(=O)c1ccc(N)cc1 [DRV, Darunavir, reference compound]
- fold changes of IC50 values compared to wild-type HIV-1ERS104pre [1]: 1 fold
- fold changes of IC50 values compared to wild-type HIV-1ERS104pre (HIV-1MDR/TM (X4)): 6 fold
- fold changes of IC50 values compared to wild-type HIV-1ERS104pre (HIV-1MDR/G (X4)): 6 fold
- fold changes of IC50 values compared to wild-type HIV-1ERS104pre (HIV-1MDR/MM (R5)): 3 fold
- fold changes of IC50 values compared to wild-type HIV-1ERS104pre (HIV-1MDR/JSL (R5)): 5 fold
- fold changes of IC50 values compared to wild-type HIV-1ERS104pre (HIV-1MDR/C (X4)): 2 fold
- fold changes of IC50 values compared to wild-type HIV-1ERS104pre (HIV-1MDR/B (X4)): 6 fold

Structure (SMILES): COc1ccc(S(=O)(=O)N(CC(C)C)C[C@@H](O)[C@H](Cc2ccccc2)NC(=O)O[C@H]2CO[C@H]3O[C@H]4OCC[C@H]4[C@H]32)cc1 [Inhibitor 31]
- IC50 (HIV-1LAI): < 1000 nM

Structure (SMILES): COc1ccc(S(=O)(=O)N(CC(C)C)C[C@@H](O)[C@H](Cc2ccccc2)NC(=O)O[C@@H]2CO[C@@H]3O[C@@H]4OCC[C@@H]4[C@@H]32)cc1 [Inhibitor 32]
- IC50 (HIV-1LAI): < 10 nM

Structure (SMILES): COc1ccc(S(=O)(=O)N(CC(C)C)C[C@@H](O)[C@H](Cc2ccccc2)NC(=O)O[C@H]2CO[C@H]3O[C@@H]4OCC[C@@H]4[C@H]32)cc1 [Inhibitor 33]
- fold changes of IC50 values compared to wild-type HIV-1ERS104pre [1]: 1 fold
- fold changes of IC50 values compared to wild-type HIV-1ERS104pre (HIV-1MDR/TM (X4)): 4 fold
- fold changes of IC50 values compared to wild-type HIV-1ERS104pre (HIV-1MDR/G (X4)): 5 fold
- fold changes of IC50 values compared to wild-type HIV-1ERS104pre (HIV-1MDR/MM (R5)): 5 fold
- fold changes of IC50 values compared to wild-type HIV-1ERS104pre (HIV-1MDR/JSL (R5)): 5 fold
- fold changes of IC50 values compared to wild-type HIV-1ERS104pre (HIV-1MDR/C (X4)): 2 fold
- fold changes of IC50 values compared to wild-type HIV-1ERS104pre (HIV-1MDR/B (X4)): 7 fold
- IC50 (HIV-1LAI): < 10 nM
- Ki (HIV-1 protease): < 0.1 nM
- antiviral activity against a panel of highly PI-resistant clinical HIV-1 variants [2]: effectively suppressed all tested clinical HIV-1 variants

Structure (SMILES): COc1ccc(S(=O)(=O)N(CC(C)C)C[C@@H](O)[C@H](Cc2ccccc2)NC(=O)O[C@@H]2CO[C@@H]3O[C@H]4OCC[C@H]4[C@@H]32)cc1 [Inhibitor 34]
- fold changes of IC50 values compared to wild-type HIV-1ERS104pre [1]: 1 fold
- fold changes of IC50 values compared to wild-type HIV-1ERS104pre (HIV-1MDR/TM (X4)): 2 fold
- fold changes of IC50 values compared to wild-type HIV-1ERS104pre (HIV-1MDR/G (X4)): 2 fold
- fold changes of IC50 values compared to wild-type HIV-1ERS104pre (HIV-1MDR/MM (R5)): 2 fold
- fold changes of IC50 values compared to wild-type HIV-1ERS104pre (HIV-1MDR/JSL (R5)): >2 fold
- fold changes of IC50 values compared to wild-type HIV-1ERS104pre (HIV-1MDR/C (X4)): 1 fold
- fold changes of IC50 values compared to wild-type HIV-1ERS104pre (HIV-1MDR/B (X4)): 2 fold
- IC50 (HIV-1LAI): < 1000 nM
- Ki (HIV-1 protease): < 10 nM

Structure (SMILES): COc1ccc(S(=O)(=O)N(CC(C)C)C[C@@H](O)[C@H](Cc2ccccc2)NC(=O)O[C@H]2CO[C@H]3C[C@H]4OCC[C@H]4[C@H]32)cc1 [Inhibitor 35]
- IC50 (HIV-1LAI): < 1000 nM
- Ki (HIV-1 protease): < 10 nM

Structure (SMILES): COc1ccc(S(=O)(=O)N(CC(C)C)C[C@@H](O)[C@H](Cc2ccccc2)NC(=O)O[C@H]2CO[C@H]3C[C@@H]4OCC[C@@H]4[C@H]32)cc1 [Inhibitor 36]
- IC50 (HIV-1LAI): > 1000 nM
- Ki (HIV-1 protease): < 10 nM
